From patent US20230219906A1, “MACROCYCLIC-2-AMINO-3-FLUORO-BUT-3-ENAMIDES AS INHIBITORS OF MCL-1” (Janssen Pharmaceutica NV, priority 2020, published 2023)

Experiments:
[1] = test system: MOLP-8 human multiple myeloma cell line; assay: Caspase-Glo 3/7 apoptosis induction assay in MOLP-8 cells; type: cell-based; settings: Homo sapiens, MOLP-8, 2 h, caspase-3/7 activity, 2 hours at 37° C.; averaged over all runs on all batches; read-out: MOLP8 AC50
Text: MCL-1 is a regulator of apoptosis and is highly over-expressed in tumor cells that escape cell death. The assay evaluates the cellular potency of small-molecule compounds targeting regulators of the apoptosis pathway, primarily MCL-1, Bfl-1, Bcl-2, and other proteins of the Bcl-2 family. Protein-protein inhibitors disrupting the interaction of anti-apoptotic regulators with BH3-domain proteins initiate apoptosis.
The Caspase-Glo® 3/7 Assay is a luminescent assay that measures caspase-3 and −7 activities in purified enzyme preparations or cultures of adherent or suspension cells. The assay provides a proluminescent caspase-3/7 substrate, which contains the tetrapeptide sequence DEVD. This substrate is cleaved to release aminoluciferin, a substrate of luciferase used in the production of light. Addition of the single Caspase-Glo® 3/7 Reagent in an “add-mix-measure” format results in cell lysis, followed by caspase cleavage of the substrate and generation of a “glow-type” luminescent signal.
This assay uses the MOLP-8 human multiple myeloma cell line, which is sensitive to MCL-1 inhibition.
Cell cultures were maintained between 0.2 and 2.0×10^6 cells/mL. The cells were harvested by collection in 50 mL conical tubes. The cells were then pelleted at 500 g for 5 mins before removing supernatant and resuspension in fresh pre-warmed culture medium. The cells were counted and diluted as needed.
The assay reagent was prepared by transferring the buffer solution to the substrate vial and mixing. The solution may be stored for up to 1 week at 4° C. with negligible loss of signal.
Compounds were delivered in assay-ready plates (Proxiplate) and stored at −20° C. Assays always include 1 reference compound plate containing reference compounds. The plates were spotted with 40 nL of compounds (0.5% DMSO final in cells; serial dilution; […] highest conc. 1/3 dilution, 10 doses, duplicates). The compounds were used at room temperature and 4 μL of pre-warmed media was added to all wells except column 2 and 23. The negative control was prepared by adding 1% DMSO in media. The positive control was prepared by adding the appropriate positive control compound in final concentration of […] in media. The plate was prepared by adding 4 μL negative control to column 23, 4 μL positive control to column 2 and 4 μL cell suspension to all wells in the plate. The plate with cells was then incubated at 37° C. for 2 hours. The assay signal reagent is the Caspase-Glo solution described above, and 8 μL was added to all wells. The plates were then sealed and measured after 30 minutes.
The activity of a test compound was calculated as percent change in apoptosis induction as follows:
% Effect (AC50)=100−(sample-LC)/(HC-LC)*100
% Control=(sample/HC)*100
% Control min=(sample-LC)/(HC-LC)*100

[2] = target: Myeloid Cell Leukemia 1(Mcl-1) (Homo sapiens, UniProt Q07820); assay: Terbium labeled Mcl-1 HTRF binding assay with Cy5-labeled BIM BH3 peptide; settings: displacement of Cy5 Bim BH3 peptide; Ki=IC50/(1+[L]/Kd), [L]=8 nM, Kd=10 nM; 60 minutes at room temperature; read-out: Tb-MCL1 Ki
Sequence of Myeloid Cell Leukemia 1(Mcl-1) (Q07820 whole entry): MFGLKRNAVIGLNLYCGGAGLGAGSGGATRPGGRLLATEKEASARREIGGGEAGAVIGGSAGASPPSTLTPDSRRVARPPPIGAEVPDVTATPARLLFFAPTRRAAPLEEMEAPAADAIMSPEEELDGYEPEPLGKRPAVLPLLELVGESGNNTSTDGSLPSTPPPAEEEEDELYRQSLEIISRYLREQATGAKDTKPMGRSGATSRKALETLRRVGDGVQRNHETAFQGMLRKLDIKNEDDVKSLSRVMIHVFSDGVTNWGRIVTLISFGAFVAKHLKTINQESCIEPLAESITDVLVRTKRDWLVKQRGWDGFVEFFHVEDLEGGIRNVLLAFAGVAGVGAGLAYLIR
Procedure: Terbium labeled Myeloid Cell Leukemia 1(Mcl-1) homogeneous time-resolved fluorescence (HTRF) binding assay utilizing the BIM BH3 peptide (H2N—(C/Cy5Mal) WIAQELRRIGDEFN-OH) as the binding partner for Mcl-1.
This assay evaluated inhibition of the BH3 domain: Mcl-1 interaction by measuring the displacement of Cy5-labeled BIM BH3 peptide (H2N—(C/Cy5Mal) WIAQELRRIGDEFN-OH) in the HTRF assay format.
The following assay and stock buffers were prepared for use in the assay: (a) Stock buffer: 10 mM Tris-HCl, pH=7.5+150 mM NaCl, filtered, sterilized, and stored at 4° C.; and (b) 1X assay buffer, where the following ingredients were added fresh to stock buffer: 2 mM dithiothreitol (DTT), 0.0025% Tween-20, 0.1 mg/mL bovine serum albumin (BSA). The 1X Tb-Mcl-1+Cy5 Bim peptide solution was prepared by diluting the protein stock solution using the 1X assay buffer (b) to 25 pM Tb-Mcl-1 and 8 nM Cy5 Bim peptide.
Using the Acoustic ECHO, 100 nL of 100x test compound(s) were dispensed into individual wells of a white 384-well Perkin Elmer Proxiplate, for a final compound concentration of 1× and final DMSO concentration of 1%. Inhibitor control and neutral control (NC, 100 nL of 100% DMSO) were stamped into columns 23 and 24 of assay plate, respectively. Into each well of the plate was then dispensed 10 μL of the 1X Tb-Mcl-1+Cy5 Bim peptide solution. The plate was centrifuged with a cover plate at 1000 rpm for 1 minute, then incubated for 60 minutes at room temperature with plates covered.
The TR-FRET signal was read on an BMG PHERAStar FSX MicroPlate Reader at room temperature using the HTRF optic module (HTRF: excitation: 337 nm, light source: laser, emission A: 665 nm, emission B: 620 nm, integration start: 60 μs, integration time: […]).
The BMG PHERAStar FSX MicroPlate Reader was used to measure fluorescence intensity at two emission wavelengths—665 nm and 620 nm—and report relative fluorescence units (RFU) for both emissions, as well as a ratio of the emissions (665 nm/620 nm)*10,000. The RFU values were normalized to percent inhibition as follows:
% inhibition=(((NC−IC)−(compound−IC))/(NC−IC))*100
where IC (inhibitor control, low signal)= mean signal of 1X Tb-MCl-1+Cy5 Bim peptide+inhibitor control or 100% inhibition of Mcl-1; NC (neutral control, high signal)= mean signal 1X Tb-MCl-1+Cy5 Bim peptide with DMSO only or 0% inhibition An 11-point dose response curve was generated to determine IC50 values (using GenData) based on the following equation:
Y=Bottom+(Top−Bottom)/(1+10∧((log IC50−X)*HillSlope))
where Y=% inhibition in the presence of X inhibitor concentration; Top=100% inhibition derived from the IC (mean signal of Mcl-1+inhibitor control); Bottom=0% inhibition derived from the NC (mean signal of Mcl-1+DMSO); Hillslope=Hill coefficient; and IC50=concentration of compound with 50% inhibition in relation to top/neutral control (NC).
In this assay [L]=8 nM and Kd=10 nM

SMILES | AC50 [1] [nM] | Ki [2] [nM]
COCCN(CCOC)CCN(C)C(=O)[C@H]1/C(F)=C/C[C@H](C)[C@@H](C)S(=O)(=O)NC(=O)c2ccc3c(c2)N(C[C@@H]2CCCN21)C[C@@]1(CCCc2cc(Cl)ccc21)CO3 [Compound 73] | 91.4 | 0.021
C[C@@H]1[C@@H](C)C/C=C(\F)[C@H](C(=O)N(C)C2CCCOC2)N2CCC[C@H]2CN2C[C@@]3(CCCc4cc(Cl)ccc43)COc3ccc(cc32)C(=O)NS1(=O)=O (some centres unmarked) [Compound 58] | 55.7 | 0.041
C[C@@H]1[C@@H](C)C/C=C(\F)[C@H](C(=O)N(C)C2CCCOC2)N2CCC[C@H]2CN2C[C@@]3(CCCc4cc(Cl)ccc43)COc3ccc(cc32)C(=O)NS1(=O)=O (single isomer, unassigned) [Compound 62] | 134 | 0.058
C[C@@H]1[C@@H](C)C/C=C(\F)[C@H](C(=O)N2CCOC(C(F)(F)F)C2)N2CCC[C@H]2CN2C[C@@]3(CCCc4cc(Cl)ccc43)COc3ccc(cc32)C(=O)NS1(=O)=O (single isomer, unassigned) [Compound 20] | 193 | 0.255
C[C@@H]1[C@@H](C)C/C=C(\F)[C@H](C(=O)N(C)CCN2CCOCC2)N2CCC[C@H]2CN2C[C@@]3(CCCc4cc(Cl)ccc43)COc3ccc(cc32)C(=O)NS1(=O)=O [Compound 1] | 80.1 | 0.027
C[C@@H]1[C@@H](C)C/C=C(\F)[C@H](C(=O)N(C)CCCN2CCOCC2)N2CCC[C@H]2CN2C[C@@]3(CCCc4cc(Cl)ccc43)COc3ccc(cc32)C(=O)NS1(=O)=O [Compound 5] | 111 | 0.026
C[C@@H]1[C@@H](C)C/C=C(\F)[C@H](C(=O)N(C)Cc2nnnn2C)N2CCC[C@H]2CN2C[C@@]3(CCCc4cc(Cl)ccc43)COc3ccc(cc32)C(=O)NS1(=O)=O [Compound 66] | 357 | 0.025
C[C@@H]1[C@@H](C)C/C=C(\F)[C@H](C(=O)N2CCCC3(CC3)C2)N2CCC[C@H]2CN2C[C@@]3(CCCc4cc(Cl)ccc43)COc3ccc(cc32)C(=O)NS1(=O)=O (single isomer, unassigned) [Compound 16] | 446 | 0.446
CCS(=O)(=O)CCN(C)C(=O)[C@H]1/C(F)=C/C[C@H](C)[C@@H](C)S(=O)(=O)NC(=O)c2ccc3c(c2)N(C[C@@H]2CCCN21)C[C@@]1(CCCc2cc(Cl)ccc21)CO3 [Compound 82] | 557 | 0.025
CC1CN(CCN(C)C(=O)[C@H]2/C(F)=C/C[C@H](C)[C@@H](C)S(=O)(=O)NC(=O)c3ccc4c(c3)N(C[C@@H]3CCCN32)C[C@@]2(CCCc3cc(Cl)ccc32)CO4)CC(C)O1 (some centres unmarked) [Compound 44] | 87.3 | 0.104
C[C@@H]1[C@@H](C)C/C=C(\F)[C@@H](C(=O)N2C[C@H]3C[C@@H]2CO3)N2CCC[C@H]2CN2C[C@@]3(CCCc4cc(Cl)ccc43)COc3ccc(cc32)C(=O)NS1(=O)=O [Compound 10] | 285 | 0.227
C[C@@H]1[C@@H](C)C/C=C(\F)[C@H](C(=O)N2C[C@H]3C[C@@H]2CO3)N2CCC[C@H]2CN2C[C@@]3(CCCc4cc(Cl)ccc43)COc3ccc(cc32)C(=O)NS1(=O)=O [Compound 9] | 180 | 0.13
C[C@@H]1[C@@H](C)C/C=C(\F)[C@H](C(=O)N(C)CCOc2cncnc2)N2CCC[C@H]2CN2C[C@@]3(CCCc4cc(Cl)ccc43)COc3ccc(cc32)C(=O)NS1(=O)=O [Compound 41] | 99.1 | 0.034
C[C@@H]1[C@@H](C)C/C=C(\F)[C@H](C(=O)N2CC(C)(N3CCOCC3)C2)N2CCC[C@H]2CN2C[C@@]3(CCCc4cc(Cl)ccc43)COc3ccc(cc32)C(=O)NS1(=O)=O [Compound 84] | 317 | 0.04
Cc1nc(CN(C)C(=O)[C@H]2/C(F)=C/C[C@H](C)[C@@H](C)S(=O)(=O)NC(=O)c3ccc4c(c3)N(C[C@@H]3CCCN32)C[C@@]2(CCCc3cc(Cl)ccc32)CO4)co1 [Compound 80] | 134 | 0.079
C[C@@H]1[C@@H](C)C/C=C(\F)[C@H](C(=O)N2CCOCC2)N2CCC[C@H]2CN2C[C@@]3(CCCc4cc(Cl)ccc43)COc3ccc(cc32)C(=O)NS1(=O)=O [Compound 8] | 141 | 0.074
CC(C)N(C)C(=O)[C@H]1/C(F)=C/C[C@H](C)[C@@H](C)S(=O)(=O)NC(=O)c2ccc3c(c2)N(C[C@@H]2CCCN21)C[C@@]1(CCCc2cc(Cl)ccc21)CO3 [Compound 31] | 238 | 0.105
C[C@@H]1[C@@H](C)C/C=C(\F)C(CO)(C(=O)N(C)CCN2CCOCC2)N2CCC[C@H]2CN2C[C@@]3(CCCc4cc(Cl)ccc43)COc3ccc(cc32)C(=O)NS1(=O)=O (some centres unmarked) [Compound 86] | 1600 | 0.032
COCCCN(CCOC)C(=O)[C@H]1/C(F)=C/C[C@H](C)[C@@H](C)S(=O)(=O)NC(=O)c2ccc3c(c2)N(C[C@@H]2CCCN21)C[C@@]1(CCCc2cc(Cl)ccc21)CO3 [Compound 70] | 41.9 | 0.028
C[C@@H]1[C@@H](C)C/C=C(\F)[C@H](C(=O)N(C)CC2CCOCC2)N2CCC[C@H]2CN2C[C@@]3(CCCc4cc(Cl)ccc43)COc3ccc(cc32)C(=O)NS1(=O)=O [Compound 22] | 56.7 | 0.047
COCCN1CCC(CN(C)C(=O)[C@H]2/C(F)=C/C[C@H](C)[C@@H](C)S(=O)(=O)NC(=O)c3ccc4c(c3)N(C[C@@H]3CCCN32)C[C@@]2(CCCc3cc(Cl)ccc32)CO4)CC1 [Compound 85] | 759 | 0.025
C[C@@H]1[C@@H](C)C/C=C(\F)[C@H](C(=O)N(C)C2CCOC2)N2CCC[C@H]2CN2C[C@@]3(CCCc4cc(Cl)ccc43)COc3ccc(cc32)C(=O)NS1(=O)=O (single isomer, unassigned) [Compound 68] | 103 | 0.041
